BigSolDB 2.1

CSCC[C@H](NC(C)=O)C(=O)O
solubility (mole fraction)
Details | 283.15 K | 288.15 K | 293.15 K | 298.15 K | 303.15 K | 308.15 K | 313.15 K | 318.15 K | 323.15 K
in 2-butanone | 0.0192 | 0.0243 | 0.0316 | 0.0408 | 0.0546 | 0.0764 | 0.112 | 0.135 | 0.18
in acetone | 0.0372 | 0.0524 | 0.0643 | 0.0899 | 0.118 | 0.154 | 0.195 | 0.231 | 0.283
in acetonitrile | 0.00684 | 0.00873 | 0.0119 | 0.0167 | 0.0238 | 0.0354 | 0.0549 | 0.0912 | 0.154
in dimethyl carbonate | 0.00222 | 0.00268 | 0.00369 | 0.00531 | 0.00614 | 0.00835 | 0.0109 | 0.0151 | 0.0216
in ethanol | 0.0966 | 0.121 | 0.145 | 0.163 | 0.186 | 0.222 | 0.285 | 0.343 | 0.409
in ethyl acetate | 0.00553 | 0.00645 | 0.00846 | 0.0101 | 0.0134 | 0.0169 | 0.022 | 0.0284 | 0.0399
in methyl acetate | 0.00709 | 0.00877 | 0.0113 | 0.015 | 0.0193 | 0.026 | 0.0358 | 0.052 | 0.0821
in n-butanol | 0.0531 | 0.0697 | 0.084 | 0.103 | 0.121 | 0.145 | 0.175 | 0.207 | 0.242
in n-butyl acetate | 0.00312 | 0.00346 | 0.00409 | 0.00536 | 0.00667 | 0.00833 | 0.0103 | 0.0137 | 0.0171
in n-pentanol | 0.0417 | 0.05 | 0.0609 | 0.0755 | 0.0901 | 0.113 | 0.14 | 0.167 | 0.212
in n-propanol | 0.0668 | 0.0825 | 0.099 | 0.127 | 0.158 | 0.191 | 0.237 | 0.281 | 0.327
in n-propyl acetate | 0.0037 | 0.00414 | 0.00487 | 0.00685 | 0.00834 | 0.0107 | 0.013 | 0.0171 | 0.021
